Publication PMC6704710, “Preclinical evaluation of 3D185, a novel potent inhibitor of FGFR1/2/3 and CSF-1R, in FGFR-dependent and macrophage-dominant cancer models” (Journal of Experimental & Clinical Cancer Research : CR, 2019)

Experiments:
Assay in all cases: Eurofins kinase panel
Format in all cases: biochemical
Settings in all cases: read-out: Inhibition rate (%)
[1] = target: T1, CaMKIIγ(h) (Homo sapiens, UniProt Q13555)
T1 construct: purchased Eurofins (KinaseProfiler)

[2] = target: T2, TTBK2(h) (Homo sapiens, UniProt Q6IQ55)
T2 construct: purchased Eurofins (KinaseProfiler)

[3] = target: T3, Txk(h) (Homo sapiens, UniProt P42681)
T3 construct: purchased Eurofins (KinaseProfiler)
T3 sequence (P42681 1-527): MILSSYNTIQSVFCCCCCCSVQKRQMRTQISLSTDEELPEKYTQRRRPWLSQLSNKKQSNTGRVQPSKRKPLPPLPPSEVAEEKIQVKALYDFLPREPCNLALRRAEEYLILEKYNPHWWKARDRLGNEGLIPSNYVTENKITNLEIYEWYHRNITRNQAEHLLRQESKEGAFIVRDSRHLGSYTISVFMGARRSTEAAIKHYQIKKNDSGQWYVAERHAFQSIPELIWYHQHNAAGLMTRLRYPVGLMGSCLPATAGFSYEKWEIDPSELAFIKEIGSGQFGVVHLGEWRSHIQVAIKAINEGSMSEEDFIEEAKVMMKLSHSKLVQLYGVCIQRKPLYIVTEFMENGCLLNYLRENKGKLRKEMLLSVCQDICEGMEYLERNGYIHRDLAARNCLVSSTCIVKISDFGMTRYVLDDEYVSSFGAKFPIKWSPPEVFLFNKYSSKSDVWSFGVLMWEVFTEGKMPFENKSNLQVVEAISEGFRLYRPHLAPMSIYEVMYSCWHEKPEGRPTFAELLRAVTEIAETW

[4] = target: T4, MEKK2(h) (Homo sapiens, UniProt Q9Y2U5)
T4 construct: purchased Eurofins (KinaseProfiler)
T4 sequence (Q9Y2U5 1-619): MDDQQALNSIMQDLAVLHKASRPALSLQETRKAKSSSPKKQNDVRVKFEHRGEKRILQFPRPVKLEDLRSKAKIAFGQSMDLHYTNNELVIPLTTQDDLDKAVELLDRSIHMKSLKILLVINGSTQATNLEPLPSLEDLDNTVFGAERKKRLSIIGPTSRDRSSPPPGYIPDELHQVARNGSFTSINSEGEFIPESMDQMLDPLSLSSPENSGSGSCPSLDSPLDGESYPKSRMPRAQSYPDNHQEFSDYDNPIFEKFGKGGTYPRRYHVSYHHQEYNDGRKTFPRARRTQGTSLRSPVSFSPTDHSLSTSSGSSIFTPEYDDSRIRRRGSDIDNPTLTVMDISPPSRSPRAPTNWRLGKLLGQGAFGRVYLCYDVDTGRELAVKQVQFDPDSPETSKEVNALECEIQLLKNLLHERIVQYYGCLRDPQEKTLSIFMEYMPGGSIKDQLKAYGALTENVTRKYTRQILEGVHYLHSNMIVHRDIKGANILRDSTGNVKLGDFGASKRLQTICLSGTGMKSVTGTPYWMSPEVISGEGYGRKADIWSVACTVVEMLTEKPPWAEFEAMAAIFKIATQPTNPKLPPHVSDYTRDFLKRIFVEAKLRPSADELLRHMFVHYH

[5] = target: T5, PKCγ(h) (Homo sapiens, UniProt P05129)
T5 construct: purchased Eurofins (KinaseProfiler)

[6] = target: T6, EphA8(h) (Homo sapiens, UniProt P29322)
T6 construct: purchased Eurofins (KinaseProfiler)
T6 sequence (P29322 28-1005): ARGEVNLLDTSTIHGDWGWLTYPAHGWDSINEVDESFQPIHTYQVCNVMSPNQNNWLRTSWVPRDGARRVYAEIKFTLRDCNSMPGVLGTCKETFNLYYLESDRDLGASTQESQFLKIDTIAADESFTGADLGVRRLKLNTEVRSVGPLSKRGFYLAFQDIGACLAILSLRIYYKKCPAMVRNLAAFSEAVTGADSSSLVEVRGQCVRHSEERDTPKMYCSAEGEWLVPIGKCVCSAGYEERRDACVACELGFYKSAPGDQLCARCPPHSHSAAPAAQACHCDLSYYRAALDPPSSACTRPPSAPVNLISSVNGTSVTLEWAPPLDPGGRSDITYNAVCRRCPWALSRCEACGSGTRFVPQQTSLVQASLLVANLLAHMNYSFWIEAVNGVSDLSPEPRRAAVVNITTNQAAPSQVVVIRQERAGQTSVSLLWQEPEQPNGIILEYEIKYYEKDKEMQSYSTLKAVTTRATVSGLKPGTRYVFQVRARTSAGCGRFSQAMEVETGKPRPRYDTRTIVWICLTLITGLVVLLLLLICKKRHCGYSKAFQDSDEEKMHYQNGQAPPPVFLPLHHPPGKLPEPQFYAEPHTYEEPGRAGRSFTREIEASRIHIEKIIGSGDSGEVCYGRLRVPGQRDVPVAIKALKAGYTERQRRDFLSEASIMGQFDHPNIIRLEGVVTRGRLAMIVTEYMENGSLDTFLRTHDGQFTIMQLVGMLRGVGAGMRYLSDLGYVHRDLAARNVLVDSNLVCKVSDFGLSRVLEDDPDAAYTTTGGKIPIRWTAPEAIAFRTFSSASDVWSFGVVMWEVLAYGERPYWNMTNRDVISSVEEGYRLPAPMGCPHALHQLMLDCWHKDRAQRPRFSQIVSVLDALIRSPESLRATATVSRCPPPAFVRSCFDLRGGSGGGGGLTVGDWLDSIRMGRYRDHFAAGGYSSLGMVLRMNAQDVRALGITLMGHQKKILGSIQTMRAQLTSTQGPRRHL

[7] = target: T7, Fyn(h) (Homo sapiens, UniProt P06241)
T7 construct: purchased Eurofins (KinaseProfiler)
T7 sequence (P06241 whole entry): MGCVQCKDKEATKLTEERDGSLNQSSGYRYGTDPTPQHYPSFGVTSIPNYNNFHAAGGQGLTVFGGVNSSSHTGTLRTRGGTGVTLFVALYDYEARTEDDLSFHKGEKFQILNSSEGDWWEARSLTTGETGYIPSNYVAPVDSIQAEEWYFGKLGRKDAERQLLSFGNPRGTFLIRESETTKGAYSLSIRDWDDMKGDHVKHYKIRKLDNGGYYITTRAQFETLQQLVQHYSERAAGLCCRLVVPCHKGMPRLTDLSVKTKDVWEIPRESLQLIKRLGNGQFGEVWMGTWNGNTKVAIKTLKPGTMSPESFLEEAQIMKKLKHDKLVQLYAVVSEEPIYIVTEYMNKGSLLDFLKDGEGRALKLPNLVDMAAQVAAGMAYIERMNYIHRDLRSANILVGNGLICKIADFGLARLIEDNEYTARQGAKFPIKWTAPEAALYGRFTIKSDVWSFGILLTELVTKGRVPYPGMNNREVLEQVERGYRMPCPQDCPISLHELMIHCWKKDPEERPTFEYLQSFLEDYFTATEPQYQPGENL

T2 sequence (Q6IQ55 whole entry): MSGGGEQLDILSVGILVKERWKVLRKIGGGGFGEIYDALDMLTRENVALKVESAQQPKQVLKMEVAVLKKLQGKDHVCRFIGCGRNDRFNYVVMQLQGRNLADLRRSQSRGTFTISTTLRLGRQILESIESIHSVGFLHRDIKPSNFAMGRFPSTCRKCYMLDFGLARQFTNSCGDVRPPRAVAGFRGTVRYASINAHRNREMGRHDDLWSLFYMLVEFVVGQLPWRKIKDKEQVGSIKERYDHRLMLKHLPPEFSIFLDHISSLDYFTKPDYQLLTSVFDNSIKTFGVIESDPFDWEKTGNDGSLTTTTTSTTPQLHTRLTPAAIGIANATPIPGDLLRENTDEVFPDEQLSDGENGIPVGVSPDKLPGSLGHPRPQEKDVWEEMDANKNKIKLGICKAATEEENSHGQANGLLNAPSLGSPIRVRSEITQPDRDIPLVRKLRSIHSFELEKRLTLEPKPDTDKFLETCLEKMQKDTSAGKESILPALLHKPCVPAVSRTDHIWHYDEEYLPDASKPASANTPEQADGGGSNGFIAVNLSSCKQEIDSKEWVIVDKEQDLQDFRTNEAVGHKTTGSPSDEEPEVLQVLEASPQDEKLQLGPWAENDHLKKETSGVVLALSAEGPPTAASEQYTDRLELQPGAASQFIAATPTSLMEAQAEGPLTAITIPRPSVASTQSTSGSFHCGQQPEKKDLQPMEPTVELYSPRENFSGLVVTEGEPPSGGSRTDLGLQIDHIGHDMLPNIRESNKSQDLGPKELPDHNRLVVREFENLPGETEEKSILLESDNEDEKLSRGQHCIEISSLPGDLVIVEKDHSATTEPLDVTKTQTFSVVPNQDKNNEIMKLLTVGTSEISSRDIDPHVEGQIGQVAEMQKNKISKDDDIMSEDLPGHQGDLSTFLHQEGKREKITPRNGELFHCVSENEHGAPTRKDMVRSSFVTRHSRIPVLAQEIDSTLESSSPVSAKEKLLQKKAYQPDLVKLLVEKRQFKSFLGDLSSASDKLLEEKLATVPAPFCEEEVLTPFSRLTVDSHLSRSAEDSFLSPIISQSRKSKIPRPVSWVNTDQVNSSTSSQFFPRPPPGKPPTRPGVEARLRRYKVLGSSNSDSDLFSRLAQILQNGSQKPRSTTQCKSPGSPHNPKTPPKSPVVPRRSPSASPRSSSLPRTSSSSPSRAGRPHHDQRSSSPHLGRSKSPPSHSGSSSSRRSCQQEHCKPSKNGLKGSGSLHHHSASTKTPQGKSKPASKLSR
T1 sequence (Q13555 whole entry): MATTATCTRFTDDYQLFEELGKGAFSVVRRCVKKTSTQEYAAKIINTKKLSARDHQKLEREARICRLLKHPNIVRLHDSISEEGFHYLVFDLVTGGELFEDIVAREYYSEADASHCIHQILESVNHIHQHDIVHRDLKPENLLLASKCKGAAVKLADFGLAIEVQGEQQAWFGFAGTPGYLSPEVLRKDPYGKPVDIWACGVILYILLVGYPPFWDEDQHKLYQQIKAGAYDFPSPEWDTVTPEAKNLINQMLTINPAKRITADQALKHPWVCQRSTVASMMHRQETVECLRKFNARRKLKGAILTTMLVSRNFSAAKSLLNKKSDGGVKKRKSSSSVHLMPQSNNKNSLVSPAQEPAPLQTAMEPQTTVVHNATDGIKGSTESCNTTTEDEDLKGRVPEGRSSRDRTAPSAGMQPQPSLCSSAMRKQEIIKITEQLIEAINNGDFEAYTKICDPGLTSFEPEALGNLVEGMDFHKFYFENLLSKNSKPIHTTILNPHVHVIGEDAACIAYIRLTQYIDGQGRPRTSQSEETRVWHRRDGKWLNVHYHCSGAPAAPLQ

COc1cc(OC)c(Cl)c(-c2ccc3c(NC(=O)c4ccc(N5CCNC(C)(C)C5)cc4)n[nH]c3n2)c1Cl [3D185]
inhibition at 0.01 µM ([1]; 10 nM): -2% | inhibition at 0.1 µM ([1]; 100 nM): -6% | inhibition at 1 µM ([1]; 1000 nM): -9% | inhibition at 0.01 µM ([2]; 10 nM): -4% | inhibition at 0.1 µM ([2]; 100 nM): -11% | inhibition at 1 µM ([2]; 1000 nM): -9% | inhibition at 0.01 µM ([3]; 10 nM): 18% | inhibition at 0.1 µM ([3]; 100 nM): 27% | inhibition at 1 µM ([3]; 1000 nM): 49% | inhibition at 0.01 µM ([4]; 10 nM): 34% | inhibition at 0.1 µM ([4]; 100 nM): 85% | inhibition at 1 µM ([4]; 1000 nM): 97% | inhibition at 0.01 µM ([5]; 10 nM): -4% | inhibition at 0.1 µM ([5]; 100 nM): -8% | inhibition at 1 µM ([5]; 1000 nM): -1% | inhibition at 0.01 µM ([6]; 10 nM): 1% | inhibition at 0.1 µM ([6]; 100 nM): 5% | inhibition at 1 µM ([6]; 1000 nM): 29% | inhibition at 0.01 µM ([7]; 10 nM): 8% | inhibition at 0.1 µM ([7]; 100 nM): 27% | inhibition at 1 µM ([7]; 1000 nM): 80%
